Measured values reported in publication PMC11007962, “First-in-human study of GFH018, a small molecule inhibitor of transforming growth factor-β receptor I inhibitor, in patients with advanced solid tumors” (BMC Cancer, 2024).
“Also recorded” adds a separate entry of the source. Like-named read-outs stand apart in the source and are kept apart here.

System: patients with advanced solid tumors
[1] = 85 mg BID 14d-on/14d-off (N = 12)
[2] = all 50 patients, none related to GFH018

Experimental: The study consisted of a dose-escalation part followed by an expansion part. In the dose escalation part, a 3-day pharmacokinetic (PK) lead-in period was conducted for a single dose in the first treatment cycle. Patients received GFH018 once on cycle 1 day 1 (C1D1) and underwent serial PK testing over the first 3 days. On C1D4, patients were administered the corresponding dose of GFH018 BID 14 days on/14 days off. The first cycle was defined as 31 days, including 3-day PK leading-in period with GFH018 single dosing and then 14d-on/14d-off dosing schedule. The subsequent cycles were 28 days. The starting dose of GFH018 was 5 mg, with eight planned dose levels up to 85 mg (5, 10, 20, 30, 40, 50, 65, and 85 mg). A modified 3+3 design was used to determine the maximum tolerance dose (MTD) and RDE, guided by safety/tolerability and PK data. Dose-limiting toxicities (DLTs) were evaluated during the first cycle at each dose level. The safety of 85 mg BID, 7 d-on/7 d-off, was explored after confirming the safety of 14 d-on/14 d-off. The DLTs were defined as hematological toxicities, including G4 neutropenia lasting for more than 5 days, G3 febrile neutropenia, G4 anemia, G4 thrombocytopenia, or G3 thrombocytopenia accompanied by bleeding, and ≥ G3 nonhematological toxicity (except for diarrhea, nausea, vomiting, and rash recovering ≤ G2 after supportive treatment within 3 days). The DLTs for cardiac toxicities included ≥ G2 cardiac valve abnormalities, ≥ G2 left ventricular ejection fraction (LVEF) decrease, any cardiovascular impairment shown in imaging, and abnormal highly sensitive troponin (hs-Tn) increased to ≥ twice the baseline in two consecutive tests with an interval ≥ 3 days. In the expansion part, patients were orally administered GFH018 RDE twice daily to further evaluate the safety of RDE and other dose regimens. […] The treatment cycle lasted 28 days.
All enrolled patients were monitored regularly after GFH018 administration. Safety assessments included adverse events (AEs), serious AEs (SAEs), laboratory assessments, vital signs, physical examinations, electrocardiography and echocardiography. AEs were graded according to the NCI Common Terminology Criteria for Adverse Events (NCI-CTCAE) v5.0. All AEs were followed up until they were stable or had recovered to baseline. Adverse events of special interest (AESIs) were predefined as echocardiographic abnormalities such as aggravated stenosis or regurgitation of the heart valves, clinically significant decreases in LVEF, brain natriuretic peptide (BNP) or N-terminal pro-brain natriuretic peptide (NT-proBNP) increases, and hs-Tn increases judged by investigators.
For the safety and efficacy analyses, data from patients who received GFH018 at the same dose in the dose-escalation and expansion cohorts were pooled. The demographic and baseline characteristics were summarized using descriptive methods. Safety and efficacy data were summarized for all patients who received at least one dose of GFH018. The ORR and DCR were summarized by cohort and overall. When the sample size of the analyzed group was ten or more, the Kaplan–Meier method was used to estimate the median PFS and TTP. In this study, treatment-emergent AEs (TEAEs) were defined as AEs that occurred on or after the first dosing date of GFH018 and no later than 30 days after the last dose of GFH018. The incidence and severity of AEs were descriptively summarized according to dose level. The PK parameters of GFH018 were calculated using noncompartmental analysis methods. All plasma PK data were summarized by cohort and visit day or time using descriptive statistics.

Compound: Cc1cccc(-c2nn3c(c2-c2ccc4ncnn4c2/C=C/C(N)=O)CCC3)n1 [GFH018]
- TEAE: White blood cell count decreased [1]: 2 (16.7%) n (%)
- TEAE: White blood cells urine positive [1]: 3 (25.0%) n (%)
- TEAE: White blood cells urine positive, any grade (Table S3) [1]: 3 (25.0%) n (%)
- TEAE: White blood cells urine positive, maximal CTCAE grade G1 [1]: 3 (25.0%) n (%)
- TEAE: White blood cells urine positive, maximal CTCAE grade G2 [1]: 0 n (%)
- TEAE: White blood cells urine positive, maximal CTCAE grade G3 [1]: 0 n (%)
- TEAE: White blood cells urine positive, maximal CTCAE grade G4 [1]: 0 n (%)
- TEAE: White blood cells urine positive, maximal CTCAE grade G5 [1]: 0 n (%)
- TRAE: ALP increased [1]: 1 (8.3%) n (%)
- TRAE: ALT increased [1]: 2 (16.7%) n (%)
- TRAE: AST increased [1]: 4 (33.3%) n (%)
- TRAE: Anemia [1]: 3 (25.0%) n (%)
- TRAE: GGT increased [1]: 2 (16.7%) n (%)
- TRAE: LDH increased [1]: 2 (16.7%) n (%)
- TRAE: Lymphocyte count decreased [1]: 2 (16.7%) n (%)
- TRAE: Protein urine present [1]: 1 (8.3%) n (%)
- TRAE: Proteinuria [1]: 1 (8.3%) n (%)
- Treatment-emergent Proteinuria (grouped PTs), G1 [1]: 1 (8.3) n (%)
- Treatment-emergent Proteinuria (grouped PTs), G2 [1]: 1 (8.3) n (%)
- Treatment-emergent Proteinuria (grouped PTs), G3 [1]: 1 (8.3) n (%)
- Treatment-emergent Proteinuria (grouped PTs: proteinuria and urine protein present), any grade [1]: 3 (25.0) n (%)
- correlation between incidences of TRAEs and dosages (5–85 mg BID): no obvious correlation
- dose-limiting toxicities (DLTs) (5–85 mg BID, evaluated during the first cycle): No dose-limiting toxicity occurred; also recorded: no DLTs were observed at any dose level; also recorded: without any DLTs
- skin toxicity (GFH018 as a single agent): No special concerns related to skin toxicity were raised
- At least one TEAE (Total (N = 50)): 48 (96.0%) n (%)
- At least one TEAE (Table S3) (Total (N = 50)): 48 (96.0%) n (%)
- At least one TRAE (Total (N = 50)): 43 (86.0%) n (%)
- TEAE: ALP increased (Total (N = 50)): 8 (16.0%) n (%)
- TEAE: ALT increased (Total (N = 50)): 8 (16.0%) n (%)
- TEAE: ALT increased, any grade (Table S3) (Total (N = 50)): 8 (16.0%) n (%)
- TEAE: ALT increased, maximal CTCAE grade G1 (Total (N = 50)): 8 (16.0%) n (%)
- TEAE: ALT increased, maximal CTCAE grade G2 (Total (N = 50)): 0 n (%)
- TEAE: ALT increased, maximal CTCAE grade G3 (Total (N = 50)): 0 n (%)
- TEAE: ALT increased, maximal CTCAE grade G4 (Total (N = 50)): 0 n (%)
- TEAE: ALT increased, maximal CTCAE grade G5 (Total (N = 50)): 0 n (%)
- TEAE: AST increased (Total (N = 50)): 11 (22.0%) n (%)
- TEAE: AST increased, any grade (Table S3) (Total (N = 50)): 11 (22.0%) n (%)
- TEAE: AST increased, maximal CTCAE grade G1 (Total (N = 50)): 10 (20.0%) n (%)
- TEAE: AST increased, maximal CTCAE grade G2 (Total (N = 50)): 1 (2.0%) n (%)
- TEAE: AST increased, maximal CTCAE grade G3 (Total (N = 50)): 0 n (%)
- TEAE: AST increased, maximal CTCAE grade G4 (Total (N = 50)): 0 n (%)
- TEAE: AST increased, maximal CTCAE grade G5 (Total (N = 50)): 0 n (%)
- TEAE: Abdominal distention (Total (N = 50)): 7 (14.0%) n (%)
- TEAE: Abdominal pain (Total (N = 50)): 9 (18.0%) n (%)
- TEAE: Anemia (Total (N = 50)): 17 (34.0%) n (%)
- TEAE: Asthenia (Total (N = 50)): 9 (18.0%) n (%)
- TEAE: Bilirubin conjugated increased (Total (N = 50)): 8 (16.0%) n (%)
- TEAE: Blood albumin decreased (Total (N = 50)): 6 (12.0%) n (%)
- TEAE: Blood bilirubin increased (Total (N = 50)): 5 (10.0%) n (%)
- TEAE: C-reactive protein increased (Total (N = 50)): 5 (10.0%) n (%)
- TEAE: C-reactive protein increased, any grade (Table S3) (Total (N = 50)): 5 (10.0%) n (%)
- TEAE: C-reactive protein increased, maximal CTCAE grade G1 (Total (N = 50)): 5 (10.0%) n (%)
- TEAE: C-reactive protein increased, maximal CTCAE grade G2 (Total (N = 50)): 0 n (%)
- TEAE: C-reactive protein increased, maximal CTCAE grade G3 (Total (N = 50)): 0 n (%)
- TEAE: C-reactive protein increased, maximal CTCAE grade G4 (Total (N = 50)): 0 n (%)
- TEAE: C-reactive protein increased, maximal CTCAE grade G5 (Total (N = 50)): 0 n (%)
- TEAE: Constipation (Total (N = 50)): 8 (16.0%) n (%)
- TEAE: Decreased appetite (Total (N = 50)): 6 (12.0%) n (%)
- TEAE: Decreased appetite, any grade (Table S3) (Total (N = 50)): 6 (12.0%) n (%)
- TEAE: Decreased appetite, maximal CTCAE grade G1 (Total (N = 50)): 4 (8.0%) n (%)
- TEAE: Decreased appetite, maximal CTCAE grade G2 (Total (N = 50)): 2 (4.0%) n (%)
- TEAE: Decreased appetite, maximal CTCAE grade G3 (Total (N = 50)): 0 n (%)
- TEAE: Decreased appetite, maximal CTCAE grade G4 (Total (N = 50)): 0 n (%)
- TEAE: Decreased appetite, maximal CTCAE grade G5 (Total (N = 50)): 0 n (%)
- TEAE: GGT increased (Total (N = 50)): 10 (20.0%) n (%)
- TEAE: GGT increased, any grade (Table S3) (Total (N = 50)): 10 (20.0%) n (%)
- TEAE: GGT increased, maximal CTCAE grade G1 (Total (N = 50)): 8 (16.0%) n (%)
- TEAE: GGT increased, maximal CTCAE grade G2 (Total (N = 50)): 2 (4.0%) n (%)
- TEAE: GGT increased, maximal CTCAE grade G3 (Total (N = 50)): 0 n (%)
- TEAE: GGT increased, maximal CTCAE grade G4 (Total (N = 50)): 0 n (%)
- TEAE: GGT increased, maximal CTCAE grade G5 (Total (N = 50)): 0 n (%)
- TEAE: Hypoalbuminemia (Total (N = 50)): 7 (14.0%) n (%)
- TEAE: LDH increased (Total (N = 50)): 8 (16.0%) n (%)
- TEAE: LDH increased, any grade (Table S3) (Total (N = 50)): 8 (16.0%) n (%)
- TEAE: LDH increased, maximal CTCAE grade G1 (Total (N = 50)): 8 (16.0%) n (%)
- TEAE: LDH increased, maximal CTCAE grade G2 (Total (N = 50)): 0 n (%)
- TEAE: LDH increased, maximal CTCAE grade G3 (Total (N = 50)): 0 n (%)
- TEAE: LDH increased, maximal CTCAE grade G4 (Total (N = 50)): 0 n (%)
- TEAE: LDH increased, maximal CTCAE grade G5 (Total (N = 50)): 0 n (%)
- TEAE: Lymphocyte count decreased (Total (N = 50)): 12 (24.0%) n (%)
- TEAE: Platelet count decreased (Total (N = 50)): 6 (12.0%) n (%)
- TEAE: Proteinuria (Total (N = 50)): 11 (22.0%) n (%)
- TEAE: Sinus tachycardia (Total (N = 50)): 10 (20.0%) n (%)
- TEAE: Urine protein present (Total (N = 50)): 10 (20.0%) n (%)
- TEAE: White blood cell count decreased (Total (N = 50)): 7 (14.0%) n (%)
- TEAE: White blood cells urine positive (Total (N = 50)): 5 (10.0%) n (%)
- TEAE: White blood cells urine positive, any grade (Table S3) (Total (N = 50)): 5 (10.0%) n (%)
- TEAE: White blood cells urine positive, maximal CTCAE grade G1 (Total (N = 50)): 5 (10.0%) n (%)
- TEAE: White blood cells urine positive, maximal CTCAE grade G2 (Total (N = 50)): 0 n (%)
- TEAE: White blood cells urine positive, maximal CTCAE grade G3 (Total (N = 50)): 0 n (%)
- TEAE: White blood cells urine positive, maximal CTCAE grade G4 (Total (N = 50)): 0 n (%)
- TEAE: White blood cells urine positive, maximal CTCAE grade G5 (Total (N = 50)): 0 n (%)
- TRAE: ALP increased (Total (N = 50)): 5 (10.0%) n (%)
- TRAE: ALT increased (Total (N = 50)): 6 (12.0%) n (%)
- TRAE: AST increased (Total (N = 50)): 9 (18.0%) n (%)
- TRAE: Anemia (Total (N = 50)): 7 (14.0%) n (%)
- TRAE: GGT increased (Total (N = 50)): 5 (10.0%) n (%)
- TRAE: LDH increased (Total (N = 50)): 5 (10.0%) n (%)
- TRAE: Lymphocyte count decreased (Total (N = 50)): 6 (12.0%) n (%)
- TRAE: Protein urine present (Total (N = 50)): 6 (12.0%) n (%)
- TRAE: Proteinuria (Total (N = 50)): 7 (14.0%) n (%)
- Treatment-emergent Proteinuria (grouped PTs), G1 (Total (N = 50)): 12 (24.0) n (%)
- Treatment-emergent Proteinuria (grouped PTs), G2 (Total (N = 50)): 8 (16.0) n (%)
- Treatment-emergent Proteinuria (grouped PTs), G3 (Total (N = 50)): 1 (2.0) n (%)
- Treatment-emergent Proteinuria (grouped PTs: proteinuria and urine protein present), any grade (Total (N = 50)): 21 (42.0) n (%)
- TRAE ALP increased, all G (all 50 patients): 10.0%
- TRAE ALP increased, ≥G3 (all 50 patients): 0%
- TRAE ALT increased, all G (all 50 patients): 12%
- TRAE ALT increased, ≥G3 (all 50 patients): 0%
- TRAE AST increased, all G (all 50 patients): 18%
- TRAE AST increased, ≥G3 (all 50 patients): 0%
- TRAE GGT increased, all G (all 50 patients): 10.0%
- TRAE GGT increased, ≥G3 (all 50 patients): 0%
- TRAE LDH increased, all G (all 50 patients): 10.0%
- TRAE LDH increased, ≥G3 (all 50 patients): 0%
- TRAE anemia, all G (all 50 patients): 14%
- TRAE anemia, ≥G3 (all 50 patients): 2%
- TRAE lymphocyte count decreased, all G (all 50 patients): 12.0%
- TRAE lymphocyte count decreased, ≥G3 (all 50 patients): 2.0%
- TRAE proteinuria, all G (all 50 patients): 14%
- TRAE proteinuria, ≥G3 (all 50 patients): 2%
- TRAE urine protein present, all G (all 50 patients): 12.0%
- TRAE urine protein present, ≥G3 (all 50 patients): 0%
- bleeding events (all 50 patients): No significant cardiotoxicity or bleeding was observed; also recorded: No bleeding events occurred
- cardiotoxicity (all 50 patients): No significant cardiotoxicity or bleeding was observed; also recorded: No significant cardiotoxicity was observed; also recorded: No significant cardiovascular toxicities were observed
- changes in serum creatinine levels or estimated glomerular filtration rate (all 50 patients): no clinically significant changes
- grade 4 or 5 TRAEs (all 50 patients): No grade 4 or 5 TRAEs were observed
- patients with grade 3 proteinuria (all 50 patients): one
- patients with at least one TEAE (all 50 patients, 5-85 mg): ~96.0%
- patients with at least one TRAE (all 50 patients, 5-85 mg): 86.0%
- patients with at least one ≥ G3 TEAE (all 50 patients, 5-85 mg): 26.0%
- patients with ≥ G3 TRAEs (all 50 patients, 5-85 mg): 6%
- deaths (all 50 patients, all judged unrelated to GFH018): Six
- patients with at least one serious AE (SAE) [2]: nine
- treatment discontinuation due to AEs (bilirubin increased, peripheral edema) [2]: two
- severity of AESIs (all 50 patients, without clinical symptoms or signs): mild (Grade 1)
- maximum tolerated dose (MTD) (eight dose levels up to 85 mg): not reached
